Data set [1] can be described thus: AUC in rat at 10 mg/kg, po. The data set is classed as ADME, organism-based. Details: dose 10 mg/kg, route oral. To be noted: plasma.
Data set [2] in a line: Cmax in rat at 10 mg/kg, po. To be noted: in vivo. Details: dose 10 mg/kg, route oral. The class given is ADME, organism-based.
Data set [3] can be described thus: Drug level in rat plasma at 5.6 mg/kg, po after 150 mins. Details: dose 5.6 mg/kg, route oral. To be noted: read-out: Drug uptake. The data set is classed as ADME, organism-based.
Data set [4] in a line: Volume of distribution at steady state in rat at 2 mg/kg, iv. The data set is classed as ADME, organism-based. To be noted: in vivo, read-out: Vdss. Details: dose 2 mg/kg, route intravenous.
The nature of data set [5]: Plasma concentration in Sprague-Dawley rat at 1 to 30 mg/kg, po after 4 hrs. The class given is ADME, organism-based. Details: dose 1-30 mg/kg, route oral.
A short description of data set [6]: Volume of distribution at steady state in dog at 2 mg/kg, iv. Details: dose 2 mg/kg, route intravenous. The class given is ADME, organism-based, Canis lupus familiaris. To be noted: in vivo, read-out: Vdss.
Data set [7] in a line: Drug level in rat plasma at 3 mg/kg, po after 150 mins. Details: dose 3 mg/kg, route oral. The data set is classed as ADME, organism-based. To be noted: read-out: Drug uptake.
Data set [8] in a line: Drug level in rat brain at 5.6 mg/kg, po after 150 mins. The class given is ADME, organism-based. To be noted: read-out: Drug uptake. Details: dose 5.6 mg/kg, route oral.
For data set [9], the system named is Canis familiaris. Nature of the data set: Oral bioavailability in dog at 10 mg/kg. As to conditions: in vivo.
A short description of data set [10]: Drug level in rat plasma at 10 mg/kg, po after 150 mins. The class given is ADME, organism-based. Details: dose 10 mg/kg, route oral. As to conditions: read-out: Drug uptake.
Data set [11] is described as follows: Oral bioavailability in rat at 10 mg/kg. The data set is classed as ADME, organism-based. To be noted: in vivo.
A short description of data set [12]: Drug level in rat brain at 10 mg/kg, po after 150 mins. To be noted: read-out: Drug uptake. Details: dose 10 mg/kg, route oral. The class given is ADME, organism-based.
The nature of data set [13]: Cmax in dog at 10 mg/kg, po. To be noted: in vivo.
Data set [14] can be described thus: Drug level in rat brain at 3 mg/kg, po after 150 mins. The class given is ADME, organism-based. Details: dose 3 mg/kg, route oral. As to conditions: read-out: Drug uptake.
Data set [15] in a line: Plasma concentration in guinea pig at 10 mg/kg, iv after 5 mins. The data set is classed as ADME, organism-based, Cavia porcellus. Details: dose 10 mg/kg, route intravenous.
In data set [16] the test system is Canis familiaris. The experiment in a line: AUC in dog at 10 mg/kg, po. To be noted: in vivo.
A further data set relates to Rattus norvegicus. Nature of the data set: Volume of distribution at steady state in rat at 10 mg/kg, po. The class given is ADME, organism-based. Details: dose 10 mg/kg, route oral. To be noted: in vivo.

Take `FC(F)(F)c1ccccc1-c1cc(C(F)(F)F)c2[nH]c(C3=NOC4(CCCCC4)C3)nc2c1`: the exposure (AUC) in data set [1] is 12300 ng·h/mL; with Canis familiaris [16] it was 5252 ng·h/mL. Also, the figures for the Cmax in data set [2] and in data set [13] were 1260 ng/mL and 1640 ng/mL, respectively. Also, the concentration at […] in [3] was determined as 662 ng/mL; in data set [7], 295 ng/mL; in data set [8], 414 ng/g; in data set [10] it was 1040 ng/mL; in data set [12], 638 ng/g; in data set [14] it was 175 ng/g. Also, the figures for the Vd in [4] and in data set [6] were 2.92 L/kg and 4.43 L/kg, respectively. Besides, the concentration at 4 h in [5] worked out at 254 ng/mL. For the same compound, the F with Canis familiaris [9] was 45%. In addition, the bioavailability in data set [11] is 96%. In data set [15], this compound displayed a concentration at 5 min of 18200 ng/mL.
As to `FC(F)(F)c1ccccc1-c1ccc2nc(C3=NOC4(CCCCC4)C3)[nH]c2c1`, the highest concentration (Cmax) in [2] is 230 ng/mL. Also, in the data set on Rattus norvegicus, the Vdss was determined as 13.6 L/kg.

One may read the AUC as the area under the concentration-time curve, a measure of exposure. High values mean high exposure, low ones low exposure. What is called Cmax is the peak of the concentration-time curve. Usually bioavailability stands for the share of a dose that reaches the circulation, judged against a reference dose that is usually intravenous. Read a high bioavailability as good availability.

The record behind these values is ChEMBL document CHEMBL1649073, “Design and optimization of benzimidazole-containing transient receptor potential melastatin 8 (TRPM8) antagonists” (J Med Chem, 2011).
